Patent publication US4036696A, “Preparation of antibiotics by fermentation” (priority 1976, dated 1977)
“Also recorded” adds a separate entry of the source. Where a name gives a salt, the structure may show the parent alone. Read-outs that look alike come from different tables or passages of the source.

Columns and labels:
[1] = tested on: Vibrio percolans (MB-1272); test: disc-plate assay using Vibrio percolans
[2] = tested on: Alcaligenes faecalis (MB-9)
[3] = tested on: Proteus morganii 3202; test: in vivo protection of infected mice; details: for protection of infected mice: subcutaneous, 4000 mg. × 2 doses (so in the source)
Procedure: (§1) Methods: The method employed in this characterization is as follows: Female white Swiss mice, average weight 20-23 grams, were infected intraperitoneally with 3-20 times the number of organisms calculated to be lethal for 50% of the infected control animals (3-20 LD50 doses). At the time of infection and again 6 hours later, therapy was given by the designated route. Controls of the virulence of the culture and the toxicity of the antibiotic for uninfected mice were included in the tests. Seven days after infection the test was considered complete and the amount of the antibiotic (I) that would be required to protect 50% of the infected and treated animals was calculated by the method of Knudsen and Curtis: J. Amer. Stat. Assoc. Vol. 42: page 282 (1947).
(§2) The method employed in these studies is the same as described above with regard to the in vivo characterization of 810A. The results of these tests are described below in Table XIb:
(§3) Administration was by subcutaneous injection. At the completion of the test period, usually 7 days after administration, the amount of product required to protect 50% of the mice (ED50) from this otherwise fatal injection was calculated: […]

[4] = tested on: Proteus morganii 356; test: mouse protection test, clinical isolate; type: in vivo, mice; details: subcutaneous route × 2 doses (average of two trials)
Procedure: as §1
Administration was by subcutaneous injection. At the completion of the test period, usually 7 days after administration, the amount of product required to protect 50% of the mice (ED50) from this otherwise fatal injection was calculated:
In addition to the aforementioned in vivo trials of the product, a clinical isolate of Proteus morganii 356 which is resistant to cephalosporins and capable of degrading cephalosporin C, was employed in a mouse protection test performed in the same manner as reported above.

[5] = tested on: Aerobacter cloacae (MB-2646); test: inactivation by cell-free filtrate; type: biochemical; details: for Antibiotic Activity Remaining: starting concentration 250 μg./ml.
Procedure: The ability of Antibiotic 810A and cephalosporin C to withstand the degradative effect of the culture Aerobacter cloacae (MB-2646) was also determined. This culture is gram-negative and resistant to cephalosporin C. […] The source of the inactivating substance is a 1:160 dilution of the filtrate of an 18 hour 37° C. shake culture of Aerobacter cloacae MB-2646 in nutrient broth containing 0.2% yeast extract. Table XIV, infra, indicates the percent inactivation of Antibiotic 810A, cephalothin, cephaloridine and cephalosporin C on Vibrio percolans (MB-1272) via this method:
Using the same assay procedure as described above, Table XV, infra, indicates the relative resistance of Antibiotic 810A to enzymatic inactivation by Aerobacter cloacae. The starting concentration in 250 μg./ml. Results are expressed in μg./ml.

[6] = tested on: penicillinase; details: background statement; cited from earlier work
[7] = tested on: Proteus morganii 251; test: bacterial inactivation
Procedure: (§4) These cultures are: Escherichia coli 236, Proteus morganii 251, Proteus morganii 356 and Proteus mirabilis 241. […] In conducting the assay, individual mixtures of the organisms and one of the antibiotics were sampled after 4 hours incubation and assayed for residual antibiotic activity. The procedure is the same assay method as described above against Alcaligenes faecalis MB-9 and A. viscosus MB-12.

[8] = tested on: Escherichia coli 236; test: bacterial inactivation
Procedure: as §4

[9] = tested on: Proteus mirabilis 241; test: bacterial inactivation
Procedure: as §4

[10] = tested on: Proteus morganii 356; test: bacterial inactivation
Procedure: as §4

[11] = tested on: Alcaligenes viscosus (MB-12); test: bacterial inactivation by washed cells; details: 4 hour incubation; assayed on B. subtilis (MB-964)
[12] = tested on: Alcaligenes viscosus (MB-12); details: organism known to inactivate; cited from earlier work
[13] = tested on: gram-negative and gram-positive bacteria; details: background statement, cited from earlier work
[14] = tested on: Alcaligenes faecalis (MB-9); details: organism known to inactivate; cited from earlier work
[15] = tested on: cephalosporinases; details: background statement; cited from earlier work
[16] = tested on: Alcaligenes faecalis (MB-9); test: bacterial inactivation by washed cells
[17] = isoelectric point and pH stability; type: physicochemical
[18] = tested on: Salmonella; test: activity against Salmonella (in words); type: cell-based
[19] = blood appearance and urinary excretion; type: in vivo; details: within four hours after administration; 240 min
[20] = tested on: Alcaligenes viscosus (MB-12); details: 4 h
[21] = tested on: cephalosporinases; test: resistance to cephalosporinases / enzymatic degradation; type: biochemical
[22] = tested on: gram-negative and gram-positive bacteria; test: antibacterial activity (in words); type: cell-based
[23] = tested on: Proteus vulgaris; test: in vivo protection of infected mice; details: subcutaneous route × two doses
Procedure: as §1, §2, §3

[24] = tested on: Diplococcus pneumoniae 2400; test: in vivo protection of infected mice; details: subcutaneous route × two doses
Procedure: as §1, §2, §3

[25] = tested on: Klebsiella pneumoniae AD; test: in vivo protection of infected mice; details: subcutaneous route × two doses
Procedure: as §1, §2, §3

[26] = tested on: Aerobacter aerogenes; test: in vivo protection of infected mice; details: subcutaneous route × two doses
Procedure: as §1, §2, §3

[27] = tested on: Paracolobactrum arizonae; test: in vivo protection of infected mice; details: subcutaneous route × two doses
Procedure: as §1, §2, §3

[28] = tested on: Klebsiella pneumoniae B; test: in vivo protection of infected mice; details: subcutaneous route × two doses
Procedure: as §1, §2, §3

[29] = tested on: Salmonella schottmuelleri; test: in vivo protection of infected mice; details: subcutaneous route × two doses
Procedure: as §1, §2, §3

[30] = tested on: Escherichia coli; test: in vivo protection of infected mice; details: subcutaneous route × two doses
Procedure: as §1, §2, §3

[31] = tested on: Proteus mirabilis; test: in vivo protection of infected mice; details: subcutaneous route × two doses
Procedure: as §1, §2, §3

[32] = tested on: Salmonella typhosa; test: in vivo protection of infected mice; details: subcutaneous route × two doses
Procedure: as §1, §2, §3

[33] = tested on: Pasteurella multocida; test: in vivo protection of infected mice; details: subcutaneous route × two doses
Procedure: as §1, §2, §3

[34] = tested on: gram-negative and gram-positive organisms; test: in vivo activity against infections (in words); design: species or system mice; details: for in vivo gram-negative potency compared with cephalothin: in general
Procedure: as §1
The method employed in these studies is the same as described above with regard to the in vivo characterization of 810A.

[35] = 2 hour incubation, assayed on V. percolans (MB-1272)
[36] = 2 hour incubation, assay organism B. subtilis 964
[37] = 2 hour incubation, assay organism V. percolans 1272
[38] = 4 hours incubation, assayed on B. subtilis (MB-964)

CO[C@@]1(NC(=O)CCC[C@@H](N)C(=O)O)C(=O)N2C(C(=O)O)=C(COC(N)=O)CS[C@@H]21 [Sodium Salt]
IC (25 mm zone) ([1]; Comamonas terrigena, read-out: concentration giving a 25 mm. zone, Example 11 concentrate at a dilution of 1:100): 400 µg/mL

CC(=O)OCC1=C(C(=O)O)N2C(=O)[C@@H](NC(=O)Cc3cccs3)[C@H]2SC1 [Cephalothin]
Percent Inactivation After Incubation With Washed Bacterial Cells ([2]; 3 h): 50% | protection of infected mice [3]: failed to protect | ED50 [4]: > 20,000 μg. | Percent Inactivation After Incubation With Cell-Free Extract [5, 35]: 66% | Antibiotic Activity Remaining [5, 36]: 140 µg/mL | Antibiotic Activity Remaining [5, 37]: 85 µg/mL

O=C(Cc1cccs1)N[C@@H]1C(=O)N2C(C(=O)[O-])=C(C[n+]3ccccc3)CS[C@H]12 [Cephaloridine]
protection of infected mice [3]: failed to protect | ED50 [4]: 9,270 μg. | Percent Inactivation After Incubation With Cell-Free Extract ([5]; aerobacter cloacae culture filtrate, 2 h): 96% | Antibiotic Activity Remaining [5, 36]: < 10 µg/mL | Antibiotic Activity Remaining [5, 37]: < 10 µg/mL

CC1(C)S[C@@H]2[C@H](NC(=O)Cc3ccccc3)C(=O)N2[C@H]1C(=O)O [Penicillin G]
behaviour toward penicillinase [6]: degraded to a form which is ineffective against most pathogens

CC(=O)OCC1=C(C(=O)O)N2C(=O)[C@@H](NC(=O)CCC[C@@H](N)C(=O)O)[C@H]2SC1 [Cephalosporin C]
percent inactivation [7, 38]: > 99% | percent inactivation [8, 38]: > 99% | percent inactivation [9, 38]: 72% | percent inactivation [10, 38]: > 99% | behaviour toward penicillinase [6]: inherent resistance to penicillinase | Percent Inactivation After Incubation With Washed Bacterial Cells [11]: > 99% | inactivation of cephalosporin C [12]: completely inactivate | antibacterial activity [13]: only moderately active | antibacterial activity ([13]; listed as cephalosporin C): relatively low antibacterial activity | inactivation of cephalosporin C [14]: completely inactivate | behaviour toward cephalosporinases [15]: effective in destroying its activity | Percent Inactivation After Incubation With Cell-Free Extract [5, 35]: 96% | Percent Inactivation After Incubation With Washed Bacterial Cells ([16]; 3 hour incubation, assayed on B. subtilis (MB-964), 4 mg./ml.): > 99% | Percent Inactivation After Incubation With Washed Bacterial Cells ([16]; 3 hour incubation, assayed on V. percolans (MB-1272)): > 99% | Percent Inactivation After Incubation With Washed Bacterial Cells ([16]; 4 hour incubation, assayed on B. subtilis (MB-964)): > 99%

CO[C@@]1(NC(=O)CCC[C@@H](N)C(=O)O)C(=O)N2C(C(=O)O)=C(COC(N)=O)CS[C@@H]21 [Antibiotic 842A]
stability ([17]; above pH 7): unstable | stability ([17]; above pH 9.0): unstable | stability ([17]; pH 1.5): relatively stable | stability ([17]; pH 1.5, listed as 842A): stable | activity against Salmonella species [18]: exhibits activity against Salmonella schottmuelleri 3010, S. gallinarum and S. typhosa | eliminated in the urine [19]: approximately 80% | Percent Inactivation After Incubation With Washed Bacterial Cells [20]: 54.4% | Percent Inactivation After Incubation With Washed Bacterial Cells ([2]; 4 h): 0% | percent inactivation ([7]; bacterial cells, 4 h): 80% | percent inactivation ([8]; bacterial cells, 4 h): 38% | percent inactivation ([9]; bacterial cells, 4 h): 5% | percent inactivation ([10]; bacterial cells, 4 h): 69% | resistance to cephalosporinases [21]: a greater resistance to cephalosporinases | resistance to enzymatic degradation compared with cephalosporin C [21]: more resistant to enzymatic degradation than cephalosporin C | antibacterial effect (in words) [22]: enhanced activity against gram-negative microorganisms | bactericidal action [22]: bactericidal | development of resistance [22]: resistance to it develops slowly | growth inhibition of gram-negative bacteria ([22]; in vitro): inhibits the growth of the following gram-negative bacteria: Escherichia coli, Proteus vulgaris, Alcaligenes faecalis, Brucella bronchiseptica, Salmonella gallinarum, Vibrio percolans and Xanthomonas vesicatoria | growth inhibition of gram-positive bacteria ([22]; in vitro): inhibits the growth of the following gram-positive bacteria: Staphylococcus aureus, Sarcina lutea and Bacillus subtilis | inhibition zone ([1]; Example 9 broth after 4 days, 0.5 inch discs): 33 mm. | ED50 [23]: 51 µg | ED50 [24]: 566 µg | ED50 [25]: 125 µg | ED50 [26]: 49 µg | ED50 [27]: 125 µg | ED50 [28]: 125 µg | ED50 [29]: 103 µg | ED50 [30]: 200 µg | ED50 [31]: 276 µg | ED50 [32]: 34 µg | ED50 [33]: 57 µg | ED50 ([3]; subcutaneous route × two doses): 276 µg | ED50 [4]: 273 µg | oral protection against infections ([34]; given orally): protects against infections due to Paracolobactrum arizonae 3270, Proteus vulgaris 1810, and Salmonella schottmuelleri 3010 | in vivo gram-negative potency compared with cephalothin [34]: greater than cephalothin | in vivo gram-negative potency compared with cephalothin ([34]; listed as 842A): generally increased gram-negative effect and an increased potency when compared to cephalothin | in vivo activity / protection against infections ([34]; mouse, in vivo): effectiveness in vivo on Proteus morganii and an effectiveness against the following gram-negative bacteria: Escherichia coli, Proteus vulgaris, Proteus mirabilis, Proteus morganii, Salmonella schottmuelleri, Klebsiella pneumoniae AD, Klebsiella pneumoniae B, and Paracolobactrum arizonae; also recorded: protects against infection with three species of Proteus, two of Salmonella, one strain of Escherichia coli, two of Klebsiella and also against Paracolobactrum arizonae, Aerobacter aerogenes, Pasteurella multocida and Diplococcus pneumoniae 2400 | protection from gram-negative infection compared with known antibiotics ([34]; subcutaneously to mice): generally more active than cephalothin; also recorded: approximately equal to cephaloridine, ampicillin and chloromycetin | resistance to inactivation compared with cephalosporin C ([16]; A. faecalis, A. viscosus, E. coli 236, P. morganii 251 and 236 (so in the source), P. mirabilis 241): more resistant than cephalosporin C | stability to bacterial inactivation ([16]; compared with cephalosporin C, cephaloridine and cephalothin, certain microorganisms): more stable than the latter against certain microorganisms
